Data on twelve compounds can be found in US6664267B1, “Crystalline fluoroquinolone arginine salt form” (Wockhardt Limited, priority 2002, dated 2003).

Where “and” joins values, the source holds several entries; their conditions need not be identical. Equal entries are not always repeated. Structures can show the parent of a compound that is named as a salt. Where two headings read alike, the source gives them in different places.

Series [1] is described as follows: mean mass diameter determination by laser diffraction. Type of series: physicochemical. The note with it: for Mean mass diameter: laser diffraction, four different samples made by the procedure of example 1, Hydrate. An excerpt: For mean mass diameter Master Sizer of Malvern Instrument LTD U.K. was used under the conditions listed below:
Analysis model: Polydisperse
Obstruction value: 20-23%

In series [2] the test system is high density bacterial inoculum. As to the kind of experiment: cidal effect with high density bacterial inoculum. It is filed as cell-based. The note with it: high density bacterial inoculum (10^8 cfu/ml).
The subject of a further series is resistant mutants. As to the kind of experiment: treating resistant mutants.
A short description of another series: dissolution rate. It is filed as physicochemical.
The test system of another series is respiratory pathogens. As to the kind of experiment: treating respiratory pathogens.
A short description of series [3]: bulk density determination. It is filed as physicochemical. An excerpt: Untapped density=25 g/untapped volume.
Tapped density=25 g/Tapped volume.

For series [4] the following is noted: in vivo.
Series [5] in a line: hygroscopicity / moisture uptake on exposure to humidity, determined gravimetrically. Type of series: physicochemical.
Another series deals with Staphylococci. As to the kind of experiment: eradication of Staphylococci from vital organs and thigh muscle. Type of series: in vivo. The note with it: compared with the standard drugs.
A further series concerns rats. The note with it: rat, in vivo, iv.
Series [6] concerns slow-growing Staphylococci. As to the kind of experiment: cidal action against slow-growing Staphylococci. Type of series: cell-based.
For another series, the system named is rodents. The note with it: in vivo.
The test system of series [7] is resistant Staphylococcus aureus.
A short description of series [8]: antibacterial minimum inhibitory concentration (MIC). It is filed as cell-based.
Where [9] appears, read: exposure at a relative humidity of 41%.

On to `CC1CCc2c(N3CCC(O)CC3)c(F)cc3c(=O)c(C(=O)O)cn1c23.N=C(N)NCCC[C@H](N)C(=O)O` (racemic) [Example 8, RS-(±)-9-Fluoro-6,7-dihydro-8-(4-hydroxypiperidin-1-yl)-5-methyl-1-oxo-1H,5H-benzo[i,j]quinolizine-2-carboxylic Acid L-Arginine Salt], for which the antimicrobial activity result in “antimicrobial activity” was “have antimicrobial activity”.

As for `CC1CCc2c(N3CCC(O)CC3)c(F)cc3c(=O)c(C(=O)O)cn1c23.N=C(N)NCCC[C@@H](N)C(=O)O` (racemic) [Example 9, RS-(±)-9-Fluoro-6,7-dihydro-8-(4-hydroxypiperidin-1-yl)-5-methyl-1-oxo-1H,5H-benzo[i,j]quinolizine-2-carboxylic Acid D-Arginine Salt], the antimicrobial activity result in the series “antimicrobial activity” is recorded as “have antimicrobial activity”.

As to `CC1CCc2c(N3CCC(O)CC3)c(F)cc3c(=O)c(C(=O)O)cn1c23.N=C(N)NCCCC(N)C(=O)O` (racemic) [R, S-9-fluoro-6,7-dihydro-8-(4-hydroxypiperidin-1-yl)-5-methyl-1-oxo-1H,5H-benzo[i,j]-quinolizine-2-carboxylic acid DL-arginine salt], the antimicrobial activity result in “antimicrobial activity” was “have antimicrobial activity”.

In the case of `C[C@@H]1CCc2c(N3CCC(O)CC3)c(F)cc3c(=O)c(C(=O)O)cn1c23.N=C(N)NCCCC(N)C(=O)O` (stereo in doubt) [R-(+)-9-fluoro-6,7-dihydro-8-(4-hydroxypiperidin-1-yl)-5-methyl-1-oxo-1H,5H-benzo[i,j]-quinolizine-2-carboxylic acid DL-arginine salt], the antimicrobial activity entry in the series “antimicrobial activity” is listed as “have antimicrobial activity”.

As for `C[C@H]1CCc2c(N3CCC(O)CC3)c(F)cc3c(=O)c(C(=O)O)cn1c23.N=C(N)NCCCC(N)C(=O)O` (stereo in doubt) [S-(−)-9-fluoro-6,7-dihydro-8-(4-hydroxypiperidin-1-yl)-5-methyl-1-oxo-1H,5H-benzo[i,j]-quinolizine-2-carboxylic acid DL-arginine salt], the antimicrobial activity result in the series “antimicrobial activity” is on record as “have antimicrobial activity”.

On to `C[C@H]1CCc2c(N3CCC(O)CC3)c(F)cc3c(=O)c(C(=O)O)cn1c23` [Example 1, S-(−)-9-Fluoro-6,7-dihydro-8-(4-hydroxypiperidin-1-yl)-5-methyl-1-oxo-1H,5H-benzo[i,j]quinolizine-2-carboxylic Acid L-Arginine Salt Hydrate], for which the Mean mass diameter in series [1] is 32.92 μm and 24.22 μm and 34.51 μm and 39.07 μm; in series [1] (listed as S-(−)-9-fluoro-6,7-dihydro-8-(4-hydroxypiperidin-1-yl)-5-methyl-1-oxo-1H,5H-benz), “less than or equal to 40 μm”. Also, the “Mean mass diameter, mean value” in series [1] (mean of four samples of Table 1) amounted to 32.68 μm. Further, in series [2], the cidal effect result was “unusual superior cidal effect”. In addition, the “effectiveness in treating resistant mutants” value with resistant mutants was “effective”. In addition, the dissolution rate entry in the series “dissolution rate” is listed as “acceptable dissolution rate”. Moreover, in the series on respiratory pathogens, the “effectiveness in treating respiratory pathogens” value is reported as “effective”. For the same compound, the “bulk density (tapped)” value in [3] (25 gm/tapped volume, tapped 150 times) stood at 0.64 g/mL. For the same compound, the “bulk density (untapped)” value in [3] (25 gm/untapped volume) is 0.57 g/mL. The bioavailability entry in [4] was “good bioavailability”. Moreover, the hygroscopicity result in series [5] is recorded as “to a certain degree hygroscopic”. Also, the “moisture absorption compared with the sodium salt” value in [5] (at specified humidity levels) was “less prone than the sodium salt to absorb moisture”. Besides, the eradication efficacy entry with Staphylococci was “scores over the standard drugs”. In addition, the “propensity to cause phlebitis” value in the series with rats was “lower propensity to cause phlebitis than the sodium and potassium salts”. Moreover, the cidal action entry in series [6] was “superior cidal action”. The toxicity entry in the series on rodents was “less toxic in rodents than the alkali salt forms”. Besides, the “activity against resistant Staphylococcus aureus” value in series [7] is on record as “potent activity”. The “antibacterial minimum inhibitory concentration (MIC) values compared with the free acid” value in series [8] is “same antibacterial minimum inhibitory concentration (MIC) values as the free active ingredient”. In addition, the “retention of potency at acidic pH” value in series [8] (acidic pH of 5.5) is on record as “unusual ability to retain potency”.

As for `C[C@H]1CCc2c(N3CCC(O)CC3)c(F)cc3c(=O)c(C(=O)O)cn1c23.N=C(N)NCCC[C@@H](N)C(=O)O` [Example 5, S-(−)-9-Fluoro-6,7-dihydro-8-(4-hydroxypiperidin-1-yl)-5-methyl-1-oxo-1H,5H-benzo[i,j]quinolizine-2-carboxylic Acid D-Arginine Salt], in “antimicrobial activity”, the antimicrobial activity result is “have antimicrobial activity”.

For `C[C@@H]1CCc2c(N3CCC(O)CC3)c(F)cc3c(=O)c(C(=O)O)cn1c23.N=C(N)NCCC[C@H](N)C(=O)O` [Example 6, R-(+)-9-Fluoro-6,7-dihydro-8-(4-hydroxypiperidin-1-yl)-5-methyl-1-oxo-1H,5H-benzo[i,j]quinolizine-2-carboxylic Acid L-Arginine Salt], in “antimicrobial activity”, the antimicrobial activity result is on record as “have antimicrobial activity”.

Regarding `C[C@@H]1CCc2c(N3CCC(O)CC3)c(F)cc3c(=O)c(C(=O)O)cn1c23.N=C(N)NCCC[C@@H](N)C(=O)O` [Example 7, R-(+)-9-Fluoro-6,7-dihydro-8-(4-hydroxypiperidin-1-yl)-5-methyl-1-oxo-1H,5H-benzo[i,j]quinolizine-2-carboxylic Acid D-Arginine Salt], the antimicrobial activity entry in “antimicrobial activity” is listed as “have antimicrobial activity”.

In the case of “S-(−)-9-fluoro-6,7-dihydro-8-(4-hydroxypiperidin-1-yl)-5-methyl-1-oxo-1H,5H-benzo[i,j]quinolizine-2-carboxylic acid [reference compound]”, the “antimicrobial activity compared with the R-(+)- and RS- acids” value in “antimicrobial activity” is “more potent antimicrobial activity”.

As for “S-(−)-9-fluoro-6,7-dihydro-8-(4-hydroxypiperidin-1-yl)-5-methyl-1-oxo-1H,5H-benzo[i,j]quinolizine-2-carboxylic acid, L-arginine salt 0.25 hydrate [reference compound]”, the hygroscopicity entry in series [5] (setting [9]) was “highly hygroscopic and turn into syrups”.

Consider “S-(−)-9-fluoro-6,7-dihydro-8-(4-hydroxypiperin-1-yl)-5-methyl-1-oxo-1H,5H-benzo[i,j]quinolizine-2-carboxylic acid, L-arginine salt, 0.75 hydrate [reference compound]”, for which the hygroscopicity result in series [5] (setting [9]) is “highly hygroscopic and turn into syrups”.
